Ends that are not written are not given here.
Tests used:
[1] = system: T-cell line specific to MOG p35-55; assay: T-cell proliferation induced by MOG 35-55 peptide and APC (H3-thymidine uptake); format: cell-based, mice; conditions: for cell survival in culture versus PBS control: T cells incubated with peptide
Description: T-cells were plated onto round 96-well plates in medium containing RPMI-1640 supplemented with 2.5% fetal calf serum (FCS), 100 U/ml penicillin, 100 μg/ml streptomycin, 50 μM 2β-mercaptoethanol, and 2 mM L-glutamine. 12×10^4 cells of the T-cell line specific to MOG p35-55, 5×10^5 irradiated (3000 rad) spleen cells (APC), and 10 μg/ml of MOG p35-55 were added to each well. In addition, peptides corresponding to the gp41 TMD region were added. Each determination was made at least in triplicate.
In order to exclude interaction between the examined peptides and the MOG p35-55 antigen, the MOG p35-55 antigen was initially added to the APCs in a test tube, and in a second test tube, the examined peptides were added to the T-cells. After 1 hour, the APCs and the T-cells were mixed and incubated for 72 h in a 96 well round bottom plate.
(§1) For some experiments, T cells were activated with immobilized anti-CD3 antibodies (Kaleeba et al., 1998, Int. Immunol. 10, 453-461) or PMA/ionomycin as described (Wang et al., 2002 Clin. Immunol. 105, 199-207). After 72 hours, at 37° C. in a 7.5% CO2 humidified atmosphere, the T-cells were pulsed with 1 μCi (H^3) thymidine, with a specific activity of 5.0 Ci/mmol, for 7 hours, and (H^3) thymidine incorporation was measured using a 96-well plate beta-counter. The mean cpm±Standard Error was calculated for each triplicate or quadruplicate. The results of T-cell proliferation experiments are shown as the percentage of T-cell proliferation inhibition triggered by the antigen in the absence of gp41 TMD peptides.
Lymph node cells were prepared from MOG 35-55/CFA immunized mice and their T cell response to the MOG 35-55 peptide was studied. T-cells were activated with the MOG 35-55 peptide and APC in the presence of gp41 TMD and TM11-19 (GLVGLRIVF; SEQ ID NO: 6) in three different concentrations (5, 25 and 50 μg/ml) and the proliferative responses was assayed. The T cell line proliferative response was determined after 3 days of incubation using a H3-thymidine uptake assay. […] The uninhibited T-cell proliferative responses were 9382±891 cpm.

TLR2 TMD = target: T1, TLR2 TMD (Homo sapiens, UniProt O60603); assay: FRET between NBD labeled peptides and TLR2-Rho in LUVs; format: binding; conditions: 100 μM LUVs; peptide 0.4 μM; TLR2-Rho 0.025-0.8 μM
T1 construct: made in house; host or cells: chemical synthesis (Fmoc solid phase, Rink amide resin)
Description: (§2) Thin films of PC were generated after dissolving the lipids in a 2:1 (v/v) mixture of CHCL3/MeOH and drying them under a stream of nitrogen gas while rotating them. The films were lyophilized overnight, sealed with argon gas to prevent oxidation of the lipids, and stored at −20° C. Before the experiments, films were suspended in the appropriate buffer and vortexed for 1.5 min. The lipid suspension underwent five cycles of freezing-thawing and extrusion through polycarbonate membranes with 1- and 0.1-μm diameter pores to create large unilamellar vesicles.
(§3) The FRET experiments were performed by using NBD and Rho labeled peptides. Fluorescence spectra were obtained at room temperature, with excitation set at 467 nm (10-nm slit) and emission scan at 500-600 nm (10-nm slits). […] Fluorescence spectra were obtained before and after addition of the Rho labeled peptide. The fluorescence values were corrected by subtracting the corresponding blank (buffer with the same vesicles concentration). […]
The energy transfer from the association of the gp41 TMD and the TLR2 TMD peptides was measured in the presence of 100 μM LUVs. […] As a control, the energy transfer between TLR2 and TAR1p/s (MVLGVFALLPLISGSL; SEQ ID NO:39) was measured. […]

[2] = system: T-cells activated with anti-CD3; assay: T-cell activation induced by mitogenic anti-CD3 antibodies; format: cell-based, mice; conditions: 1 μg/ml anti-CD3 and APC; 50 μg/ml peptide
Description: as §1
Mitogenic anti-CD3 antibodies activate CD3 signaling regardless of the presence or absence of TCR (Keppler et al., 2006, J. Leukoc. Biol. 79, 616-627). Thus, T-cells were activated with 1 μg/ml anti-CD3 and APC in the presence of 50 μg/ml gp41 TMD or gp41 TM11-19, and the proliferative responses were assayed. The TCRα Core Peptide (GLRILLLKV; SEQ ID NO: 37; TCRα CP) served as a control peptide.

[3] = system: RAW264.7 macrophage cells; assay: TNFα secretion from RAW264.7 macrophages (ELISA); format: cell-based; conditions: peptide 20 μM for 2 hours
Description: RAW264.7 macrophage cells were plated in a 96 well plate at a concentration of 20,000 cells per well and grown over-night in RPMI medium supplemented with 10% FBS and 1% Pen-Strep and 1% L-glutamine at 37 degrees with 5% CO2. The following day media was changed and the gp41 TMD peptide was added at a concentration of 20 μM—dissolved in DMSO and diluted 1:100. The cells were incubated in the presence of the peptide for 2 hours afterwards the media was removed and cells were washed twice with 100 μl of fresh media. Lipopolysaccharide (LPS) and Lipoteichoic acid (LTA) ligands were added for 5 hours (LPS was added at the concentration of 10 ng/ml and LTA added at 500 ng/ml; cells were grown at this time with 200 μl). After 5 hours 150 were taken for the measurement of TNFα by an ELISA kit.
RAW264.7 macrophages were grown in the presence of gp41 TMD peptides for 2 hours at a concentration of 20 μM. As controls, RAW264.7 macrophages were grown in the presence of GGG peptides or in the absence of peptides (FIG. 10, GGG and Control, respectively). Thereafter, the medium was washed twice and 500 ng/ml of LTA or 10 ng/ml of LPS was added for 5 hours. In order to evaluate TNFα levels an ELISA assay was performed. Results are shown normalized to the level of TNFα secretion induced by the ligands in the absence of peptides (FIG. 10 Control). The result is an average of three measurements.

CD3 molecules = assay: Co-localization of NBD-labeled peptides with CD3/TCR molecules in T cells (confocal fluorescence microscopy); format: cell-based, mice; conditions: NBD-conjugated peptide 2 μM, 1 h at 37° C., MOG35-55 T-cells
Description: Resting MOG35-55 T-cells or after activation for 72 h with MOG35-55 and APC were blocked with 1% BSA at room temperature to block non-specific binding. After 30 min the cells were washed and divided into aliquots containing 100,000 cells per 100 μl, and either gp41 TMD or a control membrane-binding amphipathic peptide (AMP-scr) was added (final concentration of 2 μM) for 1 h at 37° c. The cells were then washed and labeled with the tested antibody for 25 min at RT followed by biotin-conjugated anti-hamster IgG 25 min at RT and Streptavidin PE-Cy-5 10 min at RT (eBioscience San-Diego Calif., USA). Anti-hamster IgG followed by Streptavidin-Cy-5 served as a measure of non-specific binding amphipathic (AMP) peptide served as low TCR affinity control. The cells were analyzed by confocal fluorescence microscopy using Lab-Tek 8 chambers cover-glass (nunc) with living cells. The labeled cell samples were observed under a fluorescence confocal microscope. PE-Cy-5 excitation was done with HeNe laser 633 nm (emission data was collected with filter BA660IF, 660 nm long pass). NBD excitation was done with Ar laser 488 nm (emission data was collected from 505-525 nm). The co-localization percentage was quantified suing the “Simple PCI” software, and calculated as: (Co-localization fluorescence/NBD fluorescence)×100=co-localization percentage. […]

[4] = system: T cells activated by PMA/ionomycin; assay: T-cell activation induced by PMA/ionomycin; format: cell-based, mice
Description: as §1
PMA/ionomycin activates the T cell downstream of the membrane regardless of the presence or absence of the TCR.

TCRα CP peptide = target: T2, TCRα CP peptide (Mus musculus, UniProt P01849); assay: FRET between TCRα CP-NBD and Rho labeled peptides in PC LUV; format: binding; conditions: acceptor-to-lipid ratio of 1:1000
T2 construct: TCRα CP peptide was labeled with NBD, as a donor fluorophore; made in house; host or cells: chemical synthesis (Fmoc solid phase, Rink amide resin)
Description: as §2, §3
Further investigations were performed to reveal whether gp41 TMD interacts solely with CD3 or perhaps it interacts with the TCRα TMD. […] Then, the fluorescence energy transfer (FRET) was measured between fluorescently labeled TCRα CP-NBD peptide and gp41 TM-Rho, TCRα CP-Rho or TAR/PS-Rho. […]

T1 sequence (O60603 589-609 limits assumed): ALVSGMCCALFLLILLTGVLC

Substance | cell survival in culture versus PBS control [1] | percent of energy transfer with TLR2-Rho (TLR2 TMD) | inhibition of T cell activation by PMA/ionomycin [4] | other results
GLVGLRIVF-NH2 [TM11-19, GLVGLRIVF] | same survival in culture |  |  | 
MVLGVFALLPLISGSL [TAR1p/s, reference compound] |  | no energy transfer was detected |  | 
KKKLFIMIVGGLVGLRIVFAVLSIKKK [gp41 TMD] | same survival in culture | over 60% | did not inhibit | inhibition of T-cell activation by mitogenic anti-CD3 antibodies [2]: inhibited; TNFα secretion in response to LPS ([3]; then 10 ng/ml LPS for 5 hours): reduces TNFα secretion; TNFα secretion in response to LTA ([3]; then 500 ng/ml LTA for 5 hours): inhibits TNFα secretion; co-localization percentage with the CD3 molecules (CD3 molecules): 58.8%; inhibition of T-cell proliferation ([1]; MOG 35-55 peptide and APC, 5, 25 and 50 μg/ml peptide, 3 days, H3-thymidine uptake): dose dependent inhibition
TCRα CP-Rho: TCRα CP peptide labeled with Rho-TAMRA as an acceptor fluorophore (GLRILLLKV-NH2; also: labeled with Rho-TAMRA, position not given here) |  |  |  | energy transfer from TCRα CP-NBD (TCRα CP peptide): ~37%
GLRILLLKV [TCRα CP, reference compound] |  |  | did not inhibit | 

Reference: patent US8986712B2, “Peptides derived from HIV-1 gp41 transmembrane domain for t-immunomodulation” (Yeda Research and Development Co., Ltd., priority 2009, dated 2015)
